Reference: PMC12156367, “Synthesis and Biological Evaluation of Seco-Coumarin/Furoxan Hybrids as Potent Anti-Tumor Agents to Overcome Multidrug Resistance via Multiple Mechanisms” (Molecules, 2025)

Tests used:
[1] = Solubility experiment (HPLC) in water/acetonitrile; type: physicochemical; conditions: in water/acetonitrile (table title)
Experimental: Wavelength: 254 nm; flow rate: 1.0 mL/min; column temperature: 25 °C. Mobile phase: Phase A: water, Phase B: acetonitrile (Table 5).
Compounds were dissolved in chromatographic-grade acetonitrile and diluted to concentrations of 200, 100, 50, 25, 12.5, and 6.25 µg/mL. A standard curve was plotted using the peak area under the curve (AUC) versus concentration. […] The supernatant was filtered through an ultrafiltration membrane and then subjected to HPLC analysis. The solubility of the target compound was determined by substituting the AUC of the test compound into the standard curve. Each measurement was performed in triplicate.

[2] = test system: MCF-7/ADR (doxorubicin-resistant human breast cancer cell line); assay: In vitro antiproliferative assay (MTT, 48 h), MCF-7/ADR; type: cell-based; conditions: collateral sensitivity
Description: The MDA-MB-468 cell line was procured from the Cell Bank of the Chinese Academy of Sciences. The MCF-7, MCF-7/ADR, MCF-10A, and MDA-MB-231 cell lines were kindly provided by Professor Xianyi Sha (Fudan University, Shanghai, China). The HUVEC cells were kindly provided by Associate Professor Hulie Zeng (Fudan University, Shanghai, China). The MDA-MB-468, MDA-MB-231, MCF-7, MCF-10A, and HUVEC cells were cultivated in DMEM (Service Biotechnology, China) supplemented with 10% FBS (Capricorn Scientific, Germany) and 1% penicillin-streptomycin (Meilunbio, Dalian, China). For the MCF-7/ADR cells, they were cultured in RPMI-1640 (Service Biotechnology, Wuhan, China), containing 10% FBS and 1% penicillin-streptomycin. Additionally, 500 ng/mL of doxorubicin (Sigma-Aldrich, Saint Louis, MO, USA) was incorporated into the RPMI-1640 culture medium to keep drug resistance. All cell lines were cultured in a humidified incubator at 37 °C with a 5% CO2 atmosphere.
Following harvest during logarithmic growth, cells were plated in 96-well culture plates at an initial density of 5000 cells per well. Incubate the plate overnight at 37 °C to allow the cells to adhere. Following the overnight incubation, introduce the compound at the predetermined concentration into each well, and then return the plate to the incubator for an additional 48 h culture period. After the 48 h treatment, carefully aspirate the drug-containing medium from each well. Subsequently, add 150 μL of 0.5 mg/mL MTT (Beyotime, China) solution to each well. Protect the plate from light and incubate it at 37 °C for 4 h to allow the formation of formazan crystals. Finally, add 150 μL of DMSO (Sinopharm, China) to each well and gently mix to ensure complete dissolution of the formazan crystals. The OD value at 570nm was measured using a microplate reader (Thermo Fisher, Waltham, MA, USA). Cell proliferation inhibition was determined using the following formula:Inhibition (%) = [(ODDMSO − ODcompd.)/(ODDMSO − ODblank)] × 100
GraphPad Prism software 9 was used to calculate the IC50 values. The specific calculation process is as follows: Firstly, we input the experimental data into Prism. The data include the concentrations of the experimental compounds and the corresponding biological response values. For instance, in the cell experiment, we recorded the cell viability values at different drug concentrations. Subsequently, we select the option of “Dose–Response–Nonlinear Regression” in the “Analyze” menu for curve fitting. Generally speaking, we use the model of “[Inhibitor] vs. normalized response—Variable slope”. The Prism software fits the data through the nonlinear least squares method and finds the parameter values that can minimize the difference between the model’s predicted values and the actual data. After completing the curve fitting, the software will directly provide the estimated values and confidence intervals of the IC50 value and other relevant parameters. Meanwhile, it will also offer goodness-of-fit indices, such as the correlation coefficient, to evaluate the quality of the fitting. Through the above method, we can accurately calculate the IC50 value, thereby assessing the intensity of the inhibitory or activating effect of the compound on the biological system.

## COc1cc(OCCCOc2no[n+]([O-])c2S(=O)(=O)c2ccccc2)ccc1C(=O)C=Cc1ccccc1 [Compound 6a, 4-(3-(4-cinnamoyl-3-methoxyphenoxy)propoxy)-3-(phenylsulfonyl)-1,2,5-oxadiazole 2-oxide]
[1]
  Solubility: 60.8 ± 7.2%
[2]
  Selectivity Ratio IC50(MCF-7)/ IC50(MCF-7/ADR): 432.6

## COc1cc(OCCCOc2no[n+]([O-])c2S(=O)(=O)c2ccccc2)ccc1C(=O)/C=C/c1ccc(F)cc1 [Compound 6b, (E)-4-(3-(4-(3-(4-fluorophenyl)acryloyl)-3-methoxyphenoxy)propoxy)-3-(phenylsulfonyl)-1,2,5-oxadiazole 2-oxide]
[1]
  Solubility: 45.8 ± 3.4%
[2]
  Selectivity Ratio IC50(MCF-7)/ IC50(MCF-7/ADR): 286.6

## COc1ccc(/C=C/C(=O)c2ccc(OCCOc3no[n+]([O-])c3S(=O)(=O)c3ccccc3)cc2OC)cc1 [Compound 6c, (E)-4-(2-(3-methoxy-4-(3-(4-methoxyphenyl)acryloyl)phenoxy)ethoxy)-3-(phenylsulfonyl)-1,2,5-oxadiazole 2-oxide]
[1]
  Solubility: 37.7 ± 5.2%
[2]
  Selectivity Ratio IC50(MCF-7)/ IC50(MCF-7/ADR): 44.2

## COc1cc(OCCOc2no[n+]([O-])c2S(=O)(=O)c2ccccc2)ccc1C(=O)/C=C/c1ccc(C#N)cc1 [Compound 6e, (E)-4-(2-(4-(3-(4-cyanophenyl)acryloyl)-3-methoxyphenoxy)ethoxy)-3-(phenylsulfonyl)-1,2,5-oxadiazole 2-oxide]
[1]
  Solubility: 21.2 ± 3.3%
[2]
  Selectivity Ratio IC50(MCF-7)/ IC50(MCF-7/ADR): 328.3

## COc1cc(OCCCOc2no[n+]([O-])c2S(=O)(=O)c2ccccc2)ccc1C(=O)/C=C/c1ccc(C#N)cc1 [Compound 6f, (E)-4-(3-(4-(3-(4-cyanophenyl)acryloyl)-3-methoxyphenoxy)propoxy)-3-(phenylsulfonyl)-1,2,5-oxadiazole 2-oxide]
[1]
  Solubility: 67.2 ± 6.1%
[2]
  Selectivity Ratio IC50(MCF-7)/ IC50(MCF-7/ADR): 212.9

## COc1cc(OCCOc2no[n+]([O-])c2S(=O)(=O)c2ccccc2)ccc1C(=O)CCc1ccccc1 [Compound 9a, 4-(2-(3-methoxy-4-(3-phenylpropanoyl)phenoxy)ethoxy)-3-(phenylsulfonyl)-1,2,5-oxadiazole 2-oxide]
[1]
  Solubility: 23.5 ± 4.1%
[2]
  Selectivity Ratio IC50(MCF-7)/ IC50(MCF-7/ADR): 1716.9

## COc1cc(OCCCOc2no[n+]([O-])c2S(=O)(=O)c2ccccc2)ccc1C(=O)CCc1ccccc1 [Compound 9b, 4-(3-(3-methoxy-4-(3-phenylpropanoyl)phenoxy)propoxy)-3-(phenylsulfonyl)-1,2,5-oxadiazole 2-oxide]
[1]
  Solubility: 19.4 ± 3.1%
[2]
  Selectivity Ratio IC50(MCF-7)/ IC50(MCF-7/ADR): 1152.6

## COc1cc(OCCOc2no[n+]([O-])c2S(=O)(=O)c2ccccc2)ccc1C(=O)CCc1ccc(F)cc1 [Compound 9c, 4-(2-(4-(3-(4-fluorophenyl)propanoyl)-3-methoxyphenoxy)ethoxy)-3-(phenylsulfonyl)-1,2,5-oxadiazole 2-oxide]
[1]
  Solubility: 40.8 ± 8.2%
[2]
  Selectivity Ratio IC50(MCF-7)/ IC50(MCF-7/ADR): 137.1

## COc1cc(OCCCOc2no[n+]([O-])c2S(=O)(=O)c2ccccc2)ccc1C(=O)CCc1ccc(F)cc1 [Compound 9d, 4-(3-(4-(3-(4-fluorophenyl)propanoyl)-3-methoxyphenoxy)propoxy)-3-(phenylsulfonyl)-1,2,5-oxadiazole 2-oxide]
[1]
  Solubility: 117 ± 10.8%
[2]
  Selectivity Ratio IC50(MCF-7)/ IC50(MCF-7/ADR): 1394.2

## COc1ccc(CCC(=O)c2ccc(OCCCOc3no[n+]([O-])c3S(=O)(=O)c3ccccc3)cc2OC)cc1 [Compound 9f, 4-(3-(3-methoxy-4-(3-(4-methoxyphenyl)propanoyl)phenoxy)propoxy)-3-(phenylsulfonyl)-1,2,5-oxadiazole 2-oxide]
[1]
  Solubility: 125 ± 9.2%
[2]
  Selectivity Ratio IC50(MCF-7)/ IC50(MCF-7/ADR): 943.2

## COc1cccc2c1C(=O)c1c(O)c3c(c(O)c1C2=O)C[C@@](O)(C(=O)CO)C[C@@H]3O[C@H]1C[C@H](N)[C@H](O)[C@H](C)O1 [doxorubicin, reference compound]
[2]
  Selectivity Ratio IC50(MCF-7)/ IC50(MCF-7/ADR): 0.008
